Measured values reported in patent publication US8933071B2, “Dimethyl fasudil for inducing polyploidization of megakaryocytes and for treating blood and bone marrow diseases and disorders” (Northwestern University, priority 2008, dated 2015).
“Also recorded” adds a separate entry of the source.

Columns and labels:
[1] = test system: CD41+ megakaryocytes obtained from human MPD bone marrow; assay type: cell-based; conditions: ET patient bone marrow, TPO, 5 days
Description: Two lead compounds were tested on samples from both MPD (myeloproliferative disease) patients and AMKL (acute megakaryocytic leukemia) patients. […] Referring to FIG. 8, bone marrow samples from patients with AMKL were cultured in DMSO (control) or DMF (at 5 μM) for 14 days. Colonies were stained with anti-CD41 antibody and visualized by microcopy (not shown). Total numbers of CD41+ megakaryocyte colonies are shown.
(§1) Mononuclear cells from bone marrow of patients were obtained by informed consent from patients at Northwestern Feinberg School of Medicine. Mononuclear cells were separated from marrow with Ficoll (GE Healthcare life sciences, Piscataway, N.J.) and resuspended in IMDM (Iscove's Modified Dulbecco's Media) media without serum. The cells were stained with 0.4% trypan blue solution for 5 minutes and live cells were counted. Live cells were assayed in CFU-MK (“Colony forming units-megakaryocytes”) and BFU-E (“Burst forming unit-erythroid”) assays as well as in liquid culture.
Marrow cells from ET patients were also cultured in RPMI with 10% FBS in the presence of recombinant human TPO (thrombopoeitin, 50 ng/ml). […] DNA content of both CD41+ cells and CD41-negative cells was analyzed by utilizing a BD LSRII flow cytometer (BD Biosciences San Jose, Calif.).

[2] = test system: CD41-cells (all other cell types); assay type: cell-based, human; conditions: ET patient bone marrow, 5 days
Description: Referring to FIG. 5, bone marrow mononuclear cells from a patient with ET were cultured with two doses of DMF for 10 days.
as §1
Liquid culture. Marrow cells from ET patients were also cultured in RPMI with 10% FBS in the presence of recombinant human TPO (thrombopoeitin, 50 ng/ml). […] After 5 days, the cells were collected and stained with APC (allophycocyanin) labeled anti-human CD41 antibody (BD Biosciences San Jose, Calif.). The cells were then stained overnight with 1 μg/mL 4′,6-diamidinio-2-phenylindole (DAPI). DNA content of both CD41+ cells and CD41-negative cells was analyzed by utilizing a BD LSRII flow cytometer (BD Biosciences San Jose, Calif.).

[3] = test system: non-megakaryocytic cells (CD41-negative); test: Effect on non-megakaryocytic (CD41-negative) cells in human CD34+ culture; assay type: cell-based; conditions: CD41-negative population
Description: FIG. 4 illustrates that DMF induces polyploidization of normal human megakaryocytes and that its activity is restricted to the CD41+ population. Human CD34+ cells were cultured with TPO for 12 days and then fixed and stained with DAPI. DMSO or DMF were added to the culture after 9 days. DNA content was then assessed by flow cytometry. Numbers above the bar indicate % of cells ≧8N.
In collaboration with the Broad Institute, a high throughput screen for small molecules was conducted to identify small molecules that preferentially induce polyploidization or differentiation of megakaryocytes. We screened 10,000 compounds from the Broad's extensive collection of small molecules (including known bioactives, kinase and HDAC inhibitors, and natural products) to identify inducers of megakaryocyte polyploidization. The screen was performed in the following manner: 1) 4,000 CMK (human megakaryocytic leukemia) cells were plated into each well of a 384-well plate, 2) 100 n1 of compounds (yielding a final concentration of 10 μM) were pinned into the wells, 3) plates were incubated at 37° C. for 72 hours, 4) cells were fixed and stained with Hoescht, and 5) plates were imaged using an ImageXpressMICRO high content imager with 20× objective. Nine images per well were collected. 6) Data were analyzed using both MetaXpress software and “Cell Profiler,” software designed at MIT and the Broad Institute. […]

[4] = test system: 6133/MPL megakaryocytic leukemia cells; test: 6133/MPL transplant model of AMKL, pre-treatment of cells; assay type: in vivo, C57B1/6 mice
Source text: FIG. 9 illustrates that DMF blocks the development of AMKL in vivo. a) Histology of spleens from control and 6133/MPL transplanted mice at 20 days. b) Survival analysis of the effect of DMF pre-treatment on AMKL development in recipient mice. p<0.0005 (Log rank test). N=6 mice (vehicle (DMSO) pre-treatment) or N=7 (DMF pre-treatment) per group.
To determine whether polyploidization-inducing agents can serve as new therapies for AMKL, we established an AMKL animal model. We developed an animal model of AMKL by transplanting 6133/MPL megakaryocytic leukemia cells (35) into sub-lethally irradiated recipient C57B1/6 mice. The parental 6133 cell line, which is dependent upon TPO for survival, was derived from a leukemic mouse that expressed the AMKL t(1:22) fusion protein OTT-MAL by knock-in gene targeting. 6133 cells were then transduced with a MPLW515L expressing retrovirus, and stable TPO-independent clones were isolated. We discovered that C57B1/6 mice transplanted with 1 million 6133/MPL cells developed a fulminant AMKL within 21 days. The disease was characterized by massive infiltration of CD41+ cells in the bone marrow and spleen. These mice will be utilized as animal models to quantify the effect of small molecule inducers of polyploidization on disease progression in vivo.
To determine whether polyploidization-inducing agents can serve as new therapies for AMKL, DMF was assessed in an animal model for AMKL. To this end, an animal model of AMKL was developed by transplanting 6133/MPL megakaryocytic leukemia cells into sub-lethally irradiated recipient C57B1/6 mice. The parental 6133 cell line, which is dependent upon TPO for survival, was derived from a leukemic mouse that expressed the AMKL t(1:22) fusion protein OTT-MAL by knock-in gene targeting (35). […]
C57BL/6 mice (purchased from the Jackson Laboratory, Bar Harbor, Me.) were sub-lethally irradiated with 600 rads. […] Development of disease was assessed with presence of GFP-positive cells in the peripheral blood by FACS and by monitoring the health and body weight of the animals. […]

For dimethylfasudil [DMF], the “polyploidization of bone marrow megakaryocytes” value [1] was “potently induced polyploidization”, the “effect on CD41-cells (all other cell types)” value [2] was “no effect” and the “effect on non-megakaryocytic (CD41-negative) cells” value [3] was “no effect”. The “development/progression of AMKL in recipient mice” value ([4]; 6133/MPL cells pre-treated with 5 μM for 24 hours before transplant) was “interfered with their ability to cause a tumor; also recorded: striking and significant delay in progression of AMKL”, the “time mice healthy with no signs of disease” value ([4]; all mice implanted with cells pre-treated with 5 μM for 24 hours) was “at least 200 days” and the “survival analysis p (Log rank test)” value ([4]; pre-treatment vs vehicle (DMSO) pre-treatment) was less than 0.0005.
